Numbers after ± are expanded uncertainties.
How the values were obtained:
[1] = molar heat capacity at constant pressure; wn = mass fraction of the nth substance listed; conditions: 100 kPa, Liquid, Large sample (1 g) DSC
[2] = molar heat capacity at constant pressure; conditions: 100 kPa, Liquid, Large sample (1 g) DSC

[Cl-].[Li+] [lithium chloride] + O
molar heat capacity at constant pressure [J/K/mol], [1]
Conditions	308.15 K	313.15 K	318.15 K	323.15 K	328.15 K	333.15 K	338.15 K	343.15 K
w1 = 0.15	68.89 ± 2.9	68.97 ± 2.9	69.06 ± 2.9	69.18 ± 2.9	69.28 ± 2.9	69.36 ± 2.9	69.36 ± 2.9	69.42 ± 2.9
w1 = 0.2001	67.4 ± 2.9	67.55 ± 2.9	67.65 ± 2.9	67.79 ± 2.9	67.93 ± 2.9	68.02 ± 2.9	68.08 ± 2.9	68.06 ± 2.9
w1 = 0.2501	66.11 ± 2.8	66.26 ± 2.8	66.43 ± 2.8	66.6 ± 2.8	66.76 ± 2.8	66.93 ± 2.8	67.02 ± 2.8	67.12 ± 2.8
w1 = 0.3	65.14 ± 2.8	65.44 ± 2.8	65.66 ± 2.8	65.9 ± 2.8	66.14 ± 2.8	66.34 ± 2.8	66.49 ± 2.8	66.58 ± 2.8
w1 = 0.3499	64.84 ± 2.8	65.16 ± 2.8	65.4 ± 2.8	65.65 ± 2.8	65.92 ± 2.8	66.15 ± 2.8	66.33 ± 2.8	66.49 ± 2.8
w1 = 0.3998	64.57 ± 2.7	64.89 ± 2.8	65.17 ± 2.8	65.48 ± 2.8	65.78 ± 2.8	66.04 ± 2.8	66.25 ± 2.8	66.39 ± 2.8
w1 = 0.4502	64.39 ± 2.7	64.76 ± 2.7	65.05 ± 2.8	65.37 ± 2.8	65.68 ± 2.8	65.95 ± 2.8	66.17 ± 2.8	66.34 ± 2.8

O [water]
[2]
Conditions	molar heat capacity at constant pressure [J/K/mol]
308.15 K	75.47 ± 3.2
313.15 K	75.43 ± 3.2
318.15 K	75.41 ± 3.2
323.15 K	75.43 ± 3.2
328.15 K	75.45 ± 3.2
333.15 K	75.47 ± 3.2
338.15 K	75.47 ± 3.2
343.15 K	75.47 ± 3.2
